For experiment [1], the target named is T1, TP53-binding protein 1 (Homo sapiens, UniProt Q12888). In words: Inhibition of recombinant human N-terminal His6-tagged 53BP1 TTD (1484 to1603 residues) expressed in Escherichia coli BL21 (DE3) cells using Biotin-H4K2Ome2 as substrate preincubated for 30 mins followed by substrate addition and measured after 30 mins by AlphaScreen assay. For orientation: Alpha assays give light when donor and acceptor beads are brought close together.

The target in experiment [2] is T1, TP53-binding protein 1. In words: Binding affinity to recombinant human N-terminal His6-tagged lysine dye- labeled 53BP1 TTD (1484 to1603 residues) expressed in Escherichia coli BL21 (DE3) cells incubated for 10 mins by MST assay.
Experiment [3] concerns the target T1, TP53-binding protein 1. Nature of the experiment: Binding affinity to recombinant human N-terminal His6-tagged 53BP1 TTD (1484 to1603 residues) expressed in Escherichia coli BL21 (DE3) cells by SPR analysis. For orientation: SPR reads the build-up and loss of mass on a sensor chip optically.

T1 sequence (Q12888 whole entry, the tested form may be a part): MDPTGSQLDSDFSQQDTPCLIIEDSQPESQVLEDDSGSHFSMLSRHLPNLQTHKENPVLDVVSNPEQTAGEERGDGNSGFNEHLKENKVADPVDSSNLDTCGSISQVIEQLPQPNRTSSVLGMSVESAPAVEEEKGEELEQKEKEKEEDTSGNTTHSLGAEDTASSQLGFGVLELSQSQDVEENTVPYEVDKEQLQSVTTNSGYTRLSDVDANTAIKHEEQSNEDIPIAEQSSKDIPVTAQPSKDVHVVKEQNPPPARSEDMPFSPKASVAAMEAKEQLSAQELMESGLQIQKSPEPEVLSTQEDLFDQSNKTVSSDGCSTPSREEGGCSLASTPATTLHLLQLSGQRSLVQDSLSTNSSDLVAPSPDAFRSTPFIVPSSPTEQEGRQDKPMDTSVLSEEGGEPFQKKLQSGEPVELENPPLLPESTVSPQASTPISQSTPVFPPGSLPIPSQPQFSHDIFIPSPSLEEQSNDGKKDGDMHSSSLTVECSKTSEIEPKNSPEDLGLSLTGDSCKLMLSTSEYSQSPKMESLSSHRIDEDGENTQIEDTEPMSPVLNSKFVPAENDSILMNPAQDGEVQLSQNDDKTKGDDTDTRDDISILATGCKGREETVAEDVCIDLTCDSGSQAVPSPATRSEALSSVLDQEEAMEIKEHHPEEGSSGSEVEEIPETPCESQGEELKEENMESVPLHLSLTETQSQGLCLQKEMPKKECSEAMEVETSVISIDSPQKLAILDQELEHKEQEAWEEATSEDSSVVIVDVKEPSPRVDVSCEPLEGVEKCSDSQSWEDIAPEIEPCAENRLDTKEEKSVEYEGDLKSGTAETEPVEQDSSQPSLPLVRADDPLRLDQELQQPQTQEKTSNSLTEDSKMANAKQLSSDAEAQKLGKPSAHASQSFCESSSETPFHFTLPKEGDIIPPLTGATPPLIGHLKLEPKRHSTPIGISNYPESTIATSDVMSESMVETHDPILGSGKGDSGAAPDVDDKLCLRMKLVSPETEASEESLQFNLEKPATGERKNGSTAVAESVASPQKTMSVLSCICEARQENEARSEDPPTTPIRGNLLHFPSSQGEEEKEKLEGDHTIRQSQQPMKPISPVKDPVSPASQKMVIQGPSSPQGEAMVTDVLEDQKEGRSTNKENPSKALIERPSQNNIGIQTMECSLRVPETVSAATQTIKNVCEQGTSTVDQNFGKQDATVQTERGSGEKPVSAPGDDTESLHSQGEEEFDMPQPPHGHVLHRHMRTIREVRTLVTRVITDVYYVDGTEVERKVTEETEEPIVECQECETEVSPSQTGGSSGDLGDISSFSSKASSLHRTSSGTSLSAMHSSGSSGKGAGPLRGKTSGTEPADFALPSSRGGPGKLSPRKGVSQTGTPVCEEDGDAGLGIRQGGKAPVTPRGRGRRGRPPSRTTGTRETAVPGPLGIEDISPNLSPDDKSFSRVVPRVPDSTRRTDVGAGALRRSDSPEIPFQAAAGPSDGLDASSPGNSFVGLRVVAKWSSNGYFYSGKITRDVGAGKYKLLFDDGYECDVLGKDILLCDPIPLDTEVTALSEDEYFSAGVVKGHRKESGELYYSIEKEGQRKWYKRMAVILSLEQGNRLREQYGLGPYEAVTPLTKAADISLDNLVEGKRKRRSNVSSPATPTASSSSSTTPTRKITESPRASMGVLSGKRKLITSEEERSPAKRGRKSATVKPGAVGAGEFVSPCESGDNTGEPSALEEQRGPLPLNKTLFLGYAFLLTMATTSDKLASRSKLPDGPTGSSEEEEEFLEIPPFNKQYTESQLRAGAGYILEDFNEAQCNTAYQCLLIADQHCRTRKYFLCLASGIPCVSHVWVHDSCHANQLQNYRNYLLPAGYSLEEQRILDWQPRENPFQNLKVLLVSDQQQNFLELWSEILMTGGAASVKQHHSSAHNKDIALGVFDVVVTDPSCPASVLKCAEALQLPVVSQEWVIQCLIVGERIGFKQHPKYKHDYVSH

On to `Cc1cc(N(C)C)nc2ccc(NC(=O)/C=C/c3ccco3)cc12`, for which the IC50 at TP53-binding protein 1 [1] turned out to be 4.2 µM.

For the compound `O=C(/C=C/c1ccco1)Nc1cccc2ncccc12`, the IC50 on TP53-binding protein 1 [1] was more than 50 µM.

As to `Cc1cc(N2CCCCC2)nc2ccc(NC(=O)/C=C/c3ccco3)cc12`, on TP53-binding protein 1 [1], the half-maximal inhibitory concentration (IC50) turned out to be 15.1 µM.

`Cc1cc2cc(NC(=O)/C=C/c3ccco3)ccc2[nH]1`: at TP53-binding protein 1 [1], the IC50 stood at 22.3 µM.

Take `CCN(CC)c1cc(C)c2cc(NC(=O)/C=C/c3ccco3)ccc2n1`: at TP53-binding protein 1 [1], the IC50 worked out at 1.69 µM. Moreover, the Kd was found to be 2.69 µM on TP53-binding protein 1 [2] and 2.7 µM on TP53-binding protein 1 [3].

As for `CN(C)c1ccc2cc(NC(=O)/C=C/c3cccc4cccnc34)ccc2n1`, the IC50 on TP53-binding protein 1 [1] was more than 50 µM.

On to `CCN(CC)c1cc(C)c2cc(N(C)C(=O)/C=C/c3ccco3)ccc2n1`, for which, on TP53-binding protein 1 [1], the IC50 turned out to be 17.8 µM.

In the case of `CCN(CC)c1cc(C)c2cc(NC(=O)/C=C/c3ccc4ccoc4c3)ccc2n1`, the IC50 at TP53-binding protein 1 [1] was more than 50 µM.

For the compound `CCN(CC)c1cc(C)c2cc(NC(=O)/C=C/c3ccccn3)ccc2n1`, the IC50 at TP53-binding protein 1 [1] worked out at 31.3 µM.

Broadly, the IC50 is the concentration needed to halve the response being measured. The Kd is the concentration at which binding is half-saturated.

The values are drawn from ChEMBL document CHEMBL4680356, “Discovery of a novel 53BP1 inhibitor through AlphaScreen-based high-throughput screening” (Bioorg Med Chem, 2021).
